These are literature values, as cited in publication PMC8472830, “Inclusion of Medium-Chain Triglyceride in Lipid-Based Formulation of Cannabidiol Facilitates Micellar Solubilization In Vitro, but In Vivo Performance Remains Superior with Pure Sesame Oil Vehicle” (Pharmaceutics, 2021).

Molecules are shown by their SMILES.

Details of data set [1]: method as in PMID 32634571. The note with it: healthy male volunteers.
On the set-up of data set [2]: method as in PMID 29109461, PMID 27648135. As to conditions: rats, oral, natural sesame oil vehicle.
On the set-up of data set [3]: method as in PMID 12412831. The note with it: pH 7.4.

Turning to `C=C(C)[C@@H]1CCC(C)=C[C@H]1c1c(O)cc(CCCCC)cc1O` [CBD, Cannabidiol], the “Increase of CBD oral absorption in sesame oil compared to CBD powder” value in data set [1] is “eight-fold”. Moreover, in data set [2], the “Drug concentration in lymph fluid compared to plasma” value is recorded as 250 fold and the “Increase of systemic bioavailability of CBD compared to the lipid-free vehicle” value is recorded as 2.8 fold. In addition, the clogD7.4 in data set [3] is 6.53.
